Measurements published in PubChem BioAssay AID248 (DTP/NCI, 2004).
“And” between values parts separate entries of the source, which are not always exact repeats. Equal entries are not always repeated. Inconclusive results and toxic doses are left out. Rule as the data show it: active = T/C of 150% or more; inactive = T/C below 125%.

System: L1210 leukemia ip in BDF1 mice, survival T/C
Experiment: NCI In Vivo Anticancer Drug Screen. Data for tumor model L1210 Leukemia (intraperitoneal) in B6D2F1 (BDF1) mice
Conditions: endpoint: mean survival time, higher = longer survival
How it was run: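 Value reflects the ratio of survival in compound-treated mice to survival in vehicle-treated controls, with both groups carrying the same transplanted tumor.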

[1] = dose: 100.0 mg/kg/injection, schedule: Q04DX003 (ip), vehicle: Klucel (hydroxypropylcellulose) (HPC)
[2] = dose: 200.0 mg/kg/injection, schedule: Q04DX003 (ip), vehicle: Klucel (hydroxypropylcellulose) (HPC)
[3] = dose: 400.0 mg/kg/injection, schedule: Q04DX003 (ip), vehicle: Klucel (hydroxypropylcellulose) (HPC)
[4] = dose: 100.0 mg/kg/injection, schedule: Q01DX009 (ip), vehicle: Klucel (hydroxypropylcellulose) (HPC)
[5] = dose: 200.0 mg/kg/injection, schedule: Q01DX009 (ip), vehicle: Klucel (hydroxypropylcellulose) (HPC)
[6] = dose: 400.0 mg/kg/injection, schedule: Q01DX009 (ip), vehicle: Klucel (hydroxypropylcellulose) (HPC)
[7] = dose: 100.0 mg/kg/injection, schedule: Q01DX009 (ip), vehicle: saline
[8] = dose: 100.0 mg/kg/injection, schedule: Q04DX002 (ip), vehicle: saline
[9] = dose: 200.0 mg/kg/injection, schedule: Q04DX002 (ip), vehicle: saline
[10] = dose: 100.0 mg/kg/injection, schedule: Q04DX003 (ip), vehicle: saline
[11] = dose: 200.0 mg/kg/injection, schedule: Q01DX009 (ip), vehicle: saline
[12] = dose: 200.0 mg/kg/injection, schedule: Q04DX003 (ip), vehicle: saline
[13] = dose: 400.0 mg/kg/injection, schedule: Q01DX009 (ip), vehicle: saline
[14] = dose: 400.0 mg/kg/injection, schedule: Q04DX003 (ip), vehicle: saline
[15] = dose: 100.0 mg/kg/injection, schedule: Q01DX001 (ip), vehicle: Klucel (hydroxypropylcellulose) (HPC)
[16] = dose: 200.0 mg/kg/injection, schedule: Q01DX001 (ip), vehicle: Klucel (hydroxypropylcellulose) (HPC)
[17] = dose: 100.0 mg/kg/injection, schedule: Q04DX003 (ip), vehicle: saline with Tween-80
[18] = dose: 200.0 mg/kg/injection, schedule: Q04DX003 (ip), vehicle: saline with Tween-80
[19] = dose: 400.0 mg/kg/injection, schedule: Q04DX003 (ip), vehicle: saline with Tween-80
[20] = dose: 100.0 mg/kg/injection, schedule: Q01DX009 (ip), vehicle: saline with Tween-80
[21] = dose: 200.0 mg/kg/injection, schedule: Q01DX009 (ip), vehicle: saline with Tween-80

Measured: T/C

CCS(=O)(=O)C1C2C=CC(O2)C1S(=O)(=O)CC (configuration not stated)
inactive: [1] 102 % of control | [2] 101 % of control | [3] 96 % of control

Cc1ccc(S(=O)(=O)O)cc1.[Ag]
inactive: dose: 25.0 mg/kg/injection, schedule: Q04DX002 (ip), vehicle: saline + alcohol 92 % of control | dose: 50.0 mg/kg/injection, schedule: Q04DX002 (ip), vehicle: saline + alcohol 96 % of control

CCN1C(=O)NC(=O)/C(=C/N(CCO)CCO)C1=O
inactive: [4] 106 % of control | [1] 94 % of control | [5] 101 % of control | [2] 98 % of control | [6] 100 % of control | [3] 93 % of control

CNC(Cl)(Cl)NC
inactive: dose: 50.0 mg/kg/injection, schedule: Q01DX009 (ip), vehicle: saline 90 % of control | [7] 87 % of control | [8] 86 % of control | [9] 88 % of control

CC(N)C(=O)NCC(=O)NCC(=O)O (configuration not stated)
inactive: [7] 103 % of control | [10] 100 % of control | [11] 96 % of control | [12] 96 % of control | [13] 98 % of control | [14] 94 % of control

NC(=O)c1cc(NCCO)c([N+](=O)[O-])cc1[N+](=O)[O-]
inactive: [15] 104 % of control | [16] 100 % of control | dose: 400.0 mg/kg/injection, schedule: Q01DX001 (ip), vehicle: Klucel (hydroxypropylcellulose) (HPC) 96 % of control

CCOC(=O)CC1=C(c2ccc(OC)cc2)c2ccc(OC)cc2C1=O
inactive: dose: 50.0 mg/kg/injection, schedule: Q01DX001 (ip), vehicle: Klucel (hydroxypropylcellulose) (HPC) 98 % of control | [15] 98 % of control | [16] 95 % of control

COc1cc([N+](=O)[O-])c(C(OC(C)=O)OC(C)=O)cc1Br
inactive: dose: 100.0 mg/kg/injection, schedule: Q01DX001 (ip), vehicle: acetone 98 % of control | [7] 94 % of control | [10] 105 % of control | dose: 200.0 mg/kg/injection, schedule: Q01DX001 (ip), vehicle: acetone 88 % of control | [11] 86 % of control | [12] 109 % of control | dose: 400.0 mg/kg/injection, schedule: Q01DX001 (ip), vehicle: acetone 97 % of control | [13] 88 % of control | [14] 105 % of control

O=C(O)Cc1ccc(Cl)c2ccccc12
inactive: dose: 100.0 mg/kg/injection, schedule: Q04DX002 (ip), vehicle: Klucel (hydroxypropylcellulose) (HPC) 101 % of control | dose: 200.0 mg/kg/injection, schedule: Q04DX002 (ip), vehicle: Klucel (hydroxypropylcellulose) (HPC) 104 % of control | dose: 400.0 mg/kg/injection, schedule: Q04DX002 (ip), vehicle: Klucel (hydroxypropylcellulose) (HPC) 107 % of control

O=c1[nH]c2ccncc2c(=O)n1OS(=O)(=O)c1ccccc1
inactive: dose: 75.0 mg/kg/injection, schedule: Q01DX009 (ip), vehicle: Klucel (hydroxypropylcellulose) (HPC) 92 % of control | dose: 150.0 mg/kg/injection, schedule: Q01DX009 (ip), vehicle: Klucel (hydroxypropylcellulose) (HPC) 95 % of control | dose: 300.0 mg/kg/injection, schedule: Q01DX009 (ip), vehicle: Klucel (hydroxypropylcellulose) (HPC) 94 % of control

COc1ccc(C(O)(c2ccc(OC)cc2)c2ccccn2)cc1
inactive: [17] 95 % of control | [18] 102 % of control | [19] 91 % of control

CC(C)c1ccc(-n2c(=S)[nH]c3ccccc3c2=O)cc1
inactive: [8] 107 % of control | [9] 93 % of control | dose: 400.0 mg/kg/injection, schedule: Q04DX002 (ip), vehicle: saline 104 % of control

N#C/C(=C\C=C\c1ccccc1)C(N)=O
inactive: dose: 50.0 mg/kg/injection, schedule: Q01DX009 (ip), vehicle: saline with Tween-80 102 % of control | [20] 96 % of control | [17] 96 % of control | [21] 101 % of control | [18] 100 % of control

O=C(O)c1cccc(C2CC2)c1
inactive: dose: 100.0 mg/kg/injection, schedule: Q01DX001 (ip), vehicle: other 95 % of control | dose: 100.0 mg/kg/injection, schedule: Q04DX003 (ip), vehicle: other 97 % of control | dose: 200.0 mg/kg/injection, schedule: Q01DX001 (ip), vehicle: other 97 % of control | dose: 200.0 mg/kg/injection, schedule: Q04DX003 (ip), vehicle: other 97 % of control | dose: 400.0 mg/kg/injection, schedule: Q01DX001 (ip), vehicle: other 98 % of control | dose: 400.0 mg/kg/injection, schedule: Q04DX003 (ip), vehicle: other 97 % of control

Cc1cc(N=CN(C)C)c2ccccc2n1
inactive: dose: 25.0 mg/kg/injection, schedule: Q01DX001 (ip), vehicle: saline with Tween-80 102 % of control | dose: 50.0 mg/kg/injection, schedule: Q01DX001 (ip), vehicle: saline with Tween-80 101 % of control | dose: 50.0 mg/kg/injection, schedule: Q04DX003 (ip), vehicle: saline with Tween-80 108 % of control | [17] 98 % of control

O=C(O)/C=C/C(=O)Nc1ccccc1
inactive: [4] 90 % of control | [1] 93 % of control | [5] 97 % of control | [2] 95 % of control | [6] 100 % of control | [3] 95 % of control

CCOC(=O)CN(CC(=O)OCC)CC(O)C(Cl)(Cl)Cl (configuration not stated)
inactive: [20] 106 % of control | [17] 96 % of control | [21] 93 % of control | [18] 101 % of control | dose: 400.0 mg/kg/injection, schedule: Q01DX009 (ip), vehicle: saline with Tween-80 104 % of control | [19] 98 % of control

Nc1nc2c(ncn2C2CC(CO)C(O)C2O)c(=O)[nH]1 (configuration not stated)
inactive: dose: 9.5 mg/kg/injection, schedule: Q01DX009 (ip), vehicle: other 101 % of control | dose: 19.0 mg/kg/injection, schedule: Q04DX003 (ip), vehicle: other 94 % of control | dose: 38.0 mg/kg/injection, schedule: Q04DX003 (ip), vehicle: other 92 % of control | dose: 75.0 mg/kg/injection, schedule: Q01DX001 (ip), vehicle: other 88 % of control

CCCCC(=O)N1CC(C)OC(C)C1 (configuration not stated)
inactive: dose: 100.0 mg/kg/injection, schedule: Q01DX001 (ip), vehicle: carboxymethylcellulose (CMC) 97 % of control | dose: 100.0 mg/kg/injection, schedule: Q01DX009 (ip), vehicle: carboxymethylcellulose (CMC) 96 % of control | dose: 100.0 mg/kg/injection, schedule: Q04DX002 (ip), vehicle: carboxymethylcellulose (CMC) 102 % of control | dose: 100.0 mg/kg/injection, schedule: Q04DX003 (ip), vehicle: carboxymethylcellulose (CMC) 102 % of control | dose: 200.0 mg/kg/injection, schedule: Q01DX001 (ip), vehicle: carboxymethylcellulose (CMC) 102 % of control | dose: 200.0 mg/kg/injection, schedule: Q01DX009 (ip), vehicle: carboxymethylcellulose (CMC) 94 % of control and 104 % of control | dose: 200.0 mg/kg/injection, schedule: Q04DX002 (ip), vehicle: carboxymethylcellulose (CMC) 98 % of control | dose: 200.0 mg/kg/injection, schedule: Q04DX003 (ip), vehicle: carboxymethylcellulose (CMC) 102 % of control | dose: 400.0 mg/kg/injection, schedule: Q01DX001 (ip), vehicle: carboxymethylcellulose (CMC) 106 % of control | dose: 400.0 mg/kg/injection, schedule: Q01DX009 (ip), vehicle: carboxymethylcellulose (CMC) 94 % of control and 98 % of control | dose: 400.0 mg/kg/injection, schedule: Q04DX002 (ip), vehicle: carboxymethylcellulose (CMC) 105 % of control | dose: 400.0 mg/kg/injection, schedule: Q04DX003 (ip), vehicle: carboxymethylcellulose (CMC) 96 % of control

CN(C)C(C(=O)O)c1ccccc1 (configuration not stated)
inactive: dose: 100.0 mg/kg/injection, schedule: Q04DX002 (ip), vehicle: saline with Tween-80 101 % of control | dose: 200.0 mg/kg/injection, schedule: Q04DX002 (ip), vehicle: saline with Tween-80 97 % of control | dose: 400.0 mg/kg/injection, schedule: Q04DX002 (ip), vehicle: saline with Tween-80 97 % of control

Clc1ccc(N=Cc2ccc3c(c2)OCO3)c(Cl)c1
inactive: [4] 94 % of control | [5] 93 % of control | [6] 96 % of control
